Laboratory results published in patent US10107798B2, “Methods of chemotype evolution” (SUNESIS PHARMACEUTICALS, INC., priority 2008, dated 2018).
pEC50, pIC50: −log10 of the molar value. Where “and” joins values, the source holds several entries; their conditions need not be identical. Equal entries are not always repeated.

The molecules below were run against T1, Humanized mouse Aurora A (amino acids 107-403) (Mus musculus, UniProt P97477) (assay: Aurora A kinase assay (IMAP fluorescence polarization, FAM-PKAtide, 10 μM ATP)). Details: Table 1; disulfide chemistry: bait, fragments, unpurified reaction mixtures and purified ligand; relative to concentration of fragment molecule; read-out: IC50.
T1 sequence (P97477 1-395 N164G/K218R/M280L): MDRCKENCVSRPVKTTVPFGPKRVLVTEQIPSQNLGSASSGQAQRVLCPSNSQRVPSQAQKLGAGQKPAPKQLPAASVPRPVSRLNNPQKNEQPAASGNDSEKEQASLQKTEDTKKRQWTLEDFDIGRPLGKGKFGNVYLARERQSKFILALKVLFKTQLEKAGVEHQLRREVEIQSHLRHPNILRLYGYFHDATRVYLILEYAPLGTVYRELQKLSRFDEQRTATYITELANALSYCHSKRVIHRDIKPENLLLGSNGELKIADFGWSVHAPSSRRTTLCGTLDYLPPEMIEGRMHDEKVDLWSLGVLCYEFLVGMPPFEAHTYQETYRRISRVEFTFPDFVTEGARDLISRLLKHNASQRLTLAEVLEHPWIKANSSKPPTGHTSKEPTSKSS
Assay type: biochemical
Description: Aurora A Kinase Assay: Humanized mouse Aurora A (amino acids 107-403) was expressed in E. coli as described herein. […] The kinase reaction was initiated by adding Aurora A at a final concentration of 0.3 nM and incubated at 21° C. for 30 min. As a positive control for enzyme activity, the reaction mixture was added to DMSO and as a negative control for enzyme activity, the reaction mixture was added to Compound 1 at a final concentration of 5 μM. Both control reactions were conducted in triplicate. To detect phosphorylated PKAtide, the kinase reaction was combined with Progressive Binding Solution (1:400 Progressive Binding Reagent, 1× Buffer A, Molecular Devices) in a 1:3 ratio. The mixture was incubated for 30 min at 25° C. and the plate was scanned on an Analyst AD with excitation at 485 nm and emission at 530 nm. The fluorescence polarization value “P” is defined by equation (1) below, where “Fpar” is the fluorescence intensity parallel to the excitation plane and “Fperp” is the fluorescence intensity perpendicular to the excitation plane. The value “mP” was generated by multiplying the P value for each reaction well by a factor of 1000. The percent relative enzymatic activity (“Y” values) was calculated by normalizing the mP value for each well to the average positive control. Relative enzymatic activity values were plotted as a function of the logarithm of compound concentration (“x”) and […] values were generated in GraphPad Prism software version 4.01 using Equation (2), where “x” is the logarithm of compound concentration and “Top”, “Bottom” and “HillSlope” are curve parameters calculated by the software. IC50 values were calculated as the concentration of compound at which enzymatic activity is 50%.
Fragment Library Pilot Screen. Fragment molecule plates were screened in 96-well plates at 5 μM in single-point format in the Aurora A Kinase assay as described above. All reaction mixtures resulting in greater than or equal to 50% inhibition of enzymatic activity were then tested in an IC50 assay. Original screening samples were used for follow-up IC50 experiments. LC/MS analysis was conducted on fragment assembly screening plates to confirm presence of desired test ligand in the reaction mixture. Confirmed hits were then resynthesized as purified thioether compounds and tested in an IC50 assay.

In order of falling pIC50:
1. O=C(NCCSSCCNc1ncnc2ccsc12)Nc1cccc(C(F)(F)F)c1 [Compound 3]  5.80
2. SCCNc1ncnc2ccsc12 [Compound 4]  4.62
3. NCCSSCCNC(=O)Nc1cccc(C(F)(F)F)c1 [Compound 5]  4.52
4. NCCSSCCN [Cystamine, reference compound]  4.26

Same assay, conditions: Table 2; thioether chemistry: bait, test fragment, unpurified reaction mixtures and purified ligand; relative to concentration of fragment molecule; read-out: IC50

Going from `Clc1ncnc2ccsc12` [Compound 7] to `NCCSSCCN` [Cystamine, reference compound], the pIC50 falls from 4.55 to under 3.30. The first is the more potent here.

For `NCCSSCCc1cnc(NC(=O)Nc2cccc(C(F)(F)F)c2)s1` [Compound 8], the pIC50 was 5.00 and 4.91.

Same assay, conditions: Table 4; purified resynthesized molecule; read-out: Resynthesized Hit/Analog IC50

In order of rising pIC50:
1. O=C(NCCSc1ncnc2[nH]ccc12)Nc1ccc(C(=O)O)c(O)c1 [Compound 17]  6.40
2. COc1ccc(C(=O)Nc2ccccc2)cc1NC(=O)CCSCc1cnc2[nH]ccc2c1 [Compound 16]  6.82
3. COc1ccc(C(=O)Nc2ccccc2)cc1NC(=O)CCSc1ncnc(N)c1Br [Compound 15]  6.92
4. Nc1ncnc(NCCc2cnc(NC(=O)Nc3cccc(C(F)(F)F)c3)s2)c1Br [Compound 18]  8.30

Same assay, conditions: Table 5; bait, fragment and disulfide-assembled molecules; relative to concentration of fragment molecule; read-out: IC50

First: CCCCNC(=O)c1cccc(NC(=O)CSSCCN)c1 [Compound 20]
Second: CCCCNC(=O)c1cccc(NC(=O)CCCCCNc2ncnc3ccsc23)c1 [Compound 21]
The pIC50 of the first is lower: under 4.30 for the first, 5.39 for the second.

Going from `NCCSSCCNC(=O)c1sc(C(F)(F)F)cc1O` [Compound 22] to `O=C(NCCCCCNc1ncnc2ccsc12)c1sc(C(F)(F)F)cc1O` [Compound 23], the pIC50 rises from under 4.30 to 4.94. The second is the more potent here.

Same assay, conditions: thioether chemistry; product mixture and purified compound; read-out: IC50

With `O=C(Nc1cccc(C(F)(F)F)c1)Nc1ncc(CCSc2ncnc3ccsc23)s1` [Compound 6, reference compound] the pIC50 was 8.30.

The molecules below were run against T2, Aurora A (Homo sapiens, UniProt O14965) (assay: Aurora A activity in cell based assays). Details: inhibition of Aurora A activity in cell based assays.
T2 sequence (O14965 1-403): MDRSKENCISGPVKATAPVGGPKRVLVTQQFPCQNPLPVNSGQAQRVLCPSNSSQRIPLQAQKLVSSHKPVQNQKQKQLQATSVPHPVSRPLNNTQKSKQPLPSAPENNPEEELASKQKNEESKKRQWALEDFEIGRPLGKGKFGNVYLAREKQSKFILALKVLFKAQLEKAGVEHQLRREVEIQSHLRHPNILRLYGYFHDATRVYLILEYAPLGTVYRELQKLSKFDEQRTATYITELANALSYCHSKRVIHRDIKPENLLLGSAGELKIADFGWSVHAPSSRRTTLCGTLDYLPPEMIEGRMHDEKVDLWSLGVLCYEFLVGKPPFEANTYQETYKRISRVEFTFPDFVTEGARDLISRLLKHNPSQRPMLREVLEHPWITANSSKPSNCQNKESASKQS

In order of rising pEC50:
1. COc1ccc(C(=O)Nc2ccccc2)cc1NC(=O)CCSc1ncnc(N)c1Br [Compound 15]  6.00
2. Nc1ncnc(NCCc2cnc(NC(=O)Nc3cccc(C(F)(F)F)c3)s2)c1Br [Compound 18]  7.30

These molecules were tested against T3, ALK (Invitrogen PV3867) (Homo sapiens, UniProt Q9UM73) (assay: ALK kinase assay (LanthaScreen time-resolved FRET, 10 μM ATP)). Details: Table 7; hit fragment alone, no bait; read-out: Fragment IC50.
T3 construct: purchased Invitrogen PV3867
T3 sequence (Q9UM73 1058-1620 limits assumed): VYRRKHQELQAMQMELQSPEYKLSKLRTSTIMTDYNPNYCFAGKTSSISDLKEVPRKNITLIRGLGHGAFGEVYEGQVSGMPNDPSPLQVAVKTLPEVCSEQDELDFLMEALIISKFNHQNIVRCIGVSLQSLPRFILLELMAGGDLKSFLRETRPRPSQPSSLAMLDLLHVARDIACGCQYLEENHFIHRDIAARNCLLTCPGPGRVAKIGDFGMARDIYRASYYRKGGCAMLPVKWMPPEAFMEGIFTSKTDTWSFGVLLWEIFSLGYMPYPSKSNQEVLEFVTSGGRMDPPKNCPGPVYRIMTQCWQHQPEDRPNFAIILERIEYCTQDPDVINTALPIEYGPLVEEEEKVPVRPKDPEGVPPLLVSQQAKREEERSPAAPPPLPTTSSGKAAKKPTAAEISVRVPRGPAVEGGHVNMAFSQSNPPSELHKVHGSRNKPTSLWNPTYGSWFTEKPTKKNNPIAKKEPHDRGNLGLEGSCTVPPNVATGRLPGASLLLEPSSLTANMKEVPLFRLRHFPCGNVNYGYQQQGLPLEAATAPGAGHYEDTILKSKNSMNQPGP
Assay type: biochemical
Description: ALK kinase assays were conducted using the LanthaScreen® time-resolved FRET assay format (Invitrogen, Carlsbad Calif.). Assay conditions consisted of 15 pM (picomolar) ALK (Invitrogen PV3867), 10 μM ATP, and 100 nM substrate peptide FL-polyGT (Invitrogen PV3610) diluted in assay buffer (10 mM Tris pH 7.2, 10 mM MgCl, 1 mM DTT, 100 μM Na2OVO4. 0.01% Triton® X-100, 0.05% Casein). Control compounds and fragment-assembly reaction mixtures were diluted in DMSO to generate stock compounds at 20-fold final concentration. For IC50 assays, fragment-assembly reaction mixtures were titrated three-fold in DMSO and diluted 20-fold into the assay mixture. As a positive control for enzyme activity, the reaction mixture was added to DMSO, and, as a negative control for enzyme activity, the reaction mixture was added to staurosporine (Sigma) at a final concentration of 20 μM.
Fragment Library Pilot Screen. Fragment-assembly reaction mixtures were screened in 384-well plates at a concentration approximating 5-fold lower than that of the purine-mimetic bait fragment IC50 value, in single-point format in the ALK assay as described above. Reaction mixtures resulting in greater than or equal to 50% inhibition of enzymatic activity were then confirmed in single-point format, or tested in an IC50 assay. LC/MS analysis was conducted on fragment assembly screening plates to confirm the presence of desired test ligand in the reaction mixture.

In order of falling pIC50:
1. O=C(CS)Nc1ccc(Cl)cc1C(F)(F)F  5.79
2. O=C(CS)N1CCCN(c2nc3ccc(Cl)cc3s2)CC1 [Compound 32]  5.70
3. COc1cccc(C)c1NC(=O)NCCS  5.18

Same assay, conditions: read-out: IC50

In order of rising pIC50:
1. CNc1ncc(Cl)c(CCl)n1 [Compound 29]  5.11
2. CNc1ncc(Cl)c(Nc2cccc(CCl)c2)n1 [Compound 28]  5.43
3. COc1ccccc1Nc1ncc(Cl)c(NCCS)n1 [Compound 26]  6.30
4. CC(C)S(=O)(=O)c1ccccc1Nc1nc(NCCS)ncc1Cl [Compound 27]  6.60
